According to patent publication US20170157212A1, “CDK MODULATORS AND METHODS FOR THE TREATMENT OF CANCER” (Salk Institute for Biological Studies, priority 2015, published 2017):
Entries after “also recorded” stand apart in the source; their conditions may differ.

Columns and labels:
[1] = target: T1, affinity-purified CDK9/P-TEFb complex (Homo sapiens, UniProt P50750); test: In vitro kinase assay: CDK9/P-TEFb phosphorylation of GST-CTD; format: biochemical; settings: affinity-purified FLAG-CDK9 kinase, immunoblot
T1 construct: FLAG; made in house
Text: (A) CRIF1 and CDK12 have opposite effects on global RNAPII CTD-Ser2P levels in vivo. U2OS cells were transfected with indicated siRNAs for 48 hr, and RNAPII phosphorylation was monitored by immunoblot using phospho-specific CTD (Ser2P and Ser5P) antibodies. (B) Knockdown of CRIF1 up-regulates CHK1 expression and induction of p53. […] (C) Analysis of steady-state mRNA levels by qRT-PCR in extracts from U2OS cells exposed to control (CTL) or CRIF1-specific siRNAs, as indicated. (D) Depletion of CRIF1 enhances 4E-BP1 phosphorylation at S65 and T70 in vivo, as assessed by immunoblot using phospho-specific antibodies. (E) CRIF1 inhibits RNAPII CTD-Ser2 phosphorylation by CDK12 complexes in vitro. The human GST-CTD (52 repeat) protein was incubated in vitro with the affinity-purified HA-CDK12 kinase complex in the absence or presence of increasing levels of purified recombinant CRIF1, and analyzed by immunoblot with the indicated antisera. […] Analysis of GST-CTD Ser2 phosphorylation was carried out as described in (E), using the affinity-purified FLAG-CDK9 kinase. (G) CRIF1 inhibits 4E-BP1 phosphorylation by CDK12 in vitro. […] was monitored by immunoblot in the absence or in the presence of different levels of affinity-purified recombinant CRIF1. […]

[2] = system: CDK12; test: Co-immunoprecipitation of CRIF1 with CDK12; format: binding, human; settings: native complexes
Text: FIGS. 5A-5I. The Mitochondrial OX-PHOS Regulator, CRIF1, is a Novel Subunit of the Human CDK12 Kinase Complex. (A) Identification of CRIF1 as a near-stoichiometric subunit of the native CDK12 kinase complex. MudPIT analysis of CDK12 complexes from HEK293 cells that stably express HA-tagged full-length human CDK12. The HA-CDK12 complex was affinity-purified using anti-HA antibody and visualized by SDS-PAGE and silver-stain. (B) List of the identified proteins in the HA-CDK12 complex from (A). (C) Endogenous CRIF1 co-immunoprecipitates with native CDK12 in U2OS cell extracts. Shown is an immunoblot analysis of CRIF1, CCNK, and the chaperone proteins CDC37 and HSP90 in an anti-CDK12 immunoprecipitate. […] Native CRIF1 was immunoprecipitated from U2OS cells using an anti-CRIF1 antibody and analyzed by co-immunoprecipitation for association with various CDKs, as indicated. […] FLAG-CRIF1 proteins containing different C-terminal truncations were co-expressed with HA-CDK12 (aa 985-1490) and analyzed for binding by co-immunoprecipitation and immunoblot. […] Cell viability was analyzed after 72 hr. […] Expression of the mitochondrial MTCO-1 (COX1) protein was assessed using two different antisera. […] Each fraction (T; total, C:cytosolic, M:membrane/organelle, and N:nuclear) was analyzed by immunoblot using the indicated antibodies. […]
It was next evaluated how CRIF1 targets CDK12. […]

[3] = target: T2, CDK7 (Homo sapiens, UniProt P50613); test: Co-immunoprecipitation of CRIF1 with CDK7; format: binding
T2 construct: endogenous in cells
Text: FIGS. 5A-5I. The Mitochondrial OX-PHOS Regulator, CRIF1, is a Novel Subunit of the Human CDK12 Kinase Complex. (A) Identification of CRIF1 as a near-stoichiometric subunit of the native CDK12 kinase complex. MudPIT analysis of CDK12 complexes from HEK293 cells that stably express HA-tagged full-length human CDK12. The HA-CDK12 complex was affinity-purified using anti-HA antibody and visualized by SDS-PAGE and silver-stain. (B) List of the identified proteins in the HA-CDK12 complex from (A). (C) Endogenous CRIF1 co-immunoprecipitates with native CDK12 in U2OS cell extracts. Shown is an immunoblot analysis of CRIF1, CCNK, and the chaperone proteins CDC37 and HSP90 in an anti-CDK12 immunoprecipitate. (D) CRIF1 is a specific subunit of the CDK12 complex. Native CRIF1 was immunoprecipitated from U2OS cells using an anti-CRIF1 antibody and analyzed by co-immunoprecipitation for association with various CDKs, as indicated. […] FLAG-CRIF1 proteins containing different C-terminal truncations were co-expressed with HA-CDK12 (aa 985-1490) and analyzed for binding by co-immunoprecipitation and immunoblot. […] Cell viability was analyzed after 72 hr. […] Expression of the mitochondrial MTCO-1 (COX1) protein was assessed using two different antisera. […] Each fraction (T; total, C:cytosolic, M:membrane/organelle, and N:nuclear) was analyzed by immunoblot using the indicated antibodies. […]

T1 sequence (P50750 whole entry): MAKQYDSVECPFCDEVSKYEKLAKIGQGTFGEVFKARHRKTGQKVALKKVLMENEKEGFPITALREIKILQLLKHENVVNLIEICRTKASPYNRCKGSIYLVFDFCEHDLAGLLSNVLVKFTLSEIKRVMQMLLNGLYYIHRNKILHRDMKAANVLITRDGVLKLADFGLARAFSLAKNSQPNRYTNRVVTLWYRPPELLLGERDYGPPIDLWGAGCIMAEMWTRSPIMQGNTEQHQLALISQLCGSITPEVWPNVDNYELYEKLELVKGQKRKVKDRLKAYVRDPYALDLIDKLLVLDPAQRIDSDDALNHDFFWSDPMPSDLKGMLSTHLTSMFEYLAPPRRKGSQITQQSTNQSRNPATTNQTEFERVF
T1 sequence (O60563 whole entry partner): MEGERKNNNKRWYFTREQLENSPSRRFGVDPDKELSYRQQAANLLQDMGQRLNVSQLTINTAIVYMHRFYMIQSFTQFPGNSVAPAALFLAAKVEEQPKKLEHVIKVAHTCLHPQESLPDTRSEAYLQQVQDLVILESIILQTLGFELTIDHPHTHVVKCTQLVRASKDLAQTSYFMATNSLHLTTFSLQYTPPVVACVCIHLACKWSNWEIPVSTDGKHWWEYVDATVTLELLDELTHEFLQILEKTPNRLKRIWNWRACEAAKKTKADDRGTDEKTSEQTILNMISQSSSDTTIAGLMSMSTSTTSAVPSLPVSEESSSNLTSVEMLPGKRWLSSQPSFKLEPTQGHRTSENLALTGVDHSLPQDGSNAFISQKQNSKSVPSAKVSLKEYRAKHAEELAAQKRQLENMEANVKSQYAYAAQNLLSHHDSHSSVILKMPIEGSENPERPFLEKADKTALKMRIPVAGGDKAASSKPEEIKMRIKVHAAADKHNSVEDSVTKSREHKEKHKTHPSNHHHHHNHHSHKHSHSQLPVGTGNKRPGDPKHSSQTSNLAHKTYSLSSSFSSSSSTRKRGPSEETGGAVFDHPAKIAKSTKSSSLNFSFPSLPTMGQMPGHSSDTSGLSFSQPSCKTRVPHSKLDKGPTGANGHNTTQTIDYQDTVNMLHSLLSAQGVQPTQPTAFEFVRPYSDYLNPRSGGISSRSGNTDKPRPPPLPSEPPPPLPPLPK
T2 sequence (P50613 whole entry): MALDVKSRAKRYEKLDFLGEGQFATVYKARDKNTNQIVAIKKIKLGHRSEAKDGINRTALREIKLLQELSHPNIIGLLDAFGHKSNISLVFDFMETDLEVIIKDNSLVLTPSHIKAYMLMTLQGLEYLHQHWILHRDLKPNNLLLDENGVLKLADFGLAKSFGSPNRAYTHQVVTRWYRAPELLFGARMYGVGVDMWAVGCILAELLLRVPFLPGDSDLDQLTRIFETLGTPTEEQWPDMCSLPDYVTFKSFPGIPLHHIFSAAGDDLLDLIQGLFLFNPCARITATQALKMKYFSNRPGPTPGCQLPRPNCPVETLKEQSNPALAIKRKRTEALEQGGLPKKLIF
Sequence of CDK12 (Q9NYV4 whole entry): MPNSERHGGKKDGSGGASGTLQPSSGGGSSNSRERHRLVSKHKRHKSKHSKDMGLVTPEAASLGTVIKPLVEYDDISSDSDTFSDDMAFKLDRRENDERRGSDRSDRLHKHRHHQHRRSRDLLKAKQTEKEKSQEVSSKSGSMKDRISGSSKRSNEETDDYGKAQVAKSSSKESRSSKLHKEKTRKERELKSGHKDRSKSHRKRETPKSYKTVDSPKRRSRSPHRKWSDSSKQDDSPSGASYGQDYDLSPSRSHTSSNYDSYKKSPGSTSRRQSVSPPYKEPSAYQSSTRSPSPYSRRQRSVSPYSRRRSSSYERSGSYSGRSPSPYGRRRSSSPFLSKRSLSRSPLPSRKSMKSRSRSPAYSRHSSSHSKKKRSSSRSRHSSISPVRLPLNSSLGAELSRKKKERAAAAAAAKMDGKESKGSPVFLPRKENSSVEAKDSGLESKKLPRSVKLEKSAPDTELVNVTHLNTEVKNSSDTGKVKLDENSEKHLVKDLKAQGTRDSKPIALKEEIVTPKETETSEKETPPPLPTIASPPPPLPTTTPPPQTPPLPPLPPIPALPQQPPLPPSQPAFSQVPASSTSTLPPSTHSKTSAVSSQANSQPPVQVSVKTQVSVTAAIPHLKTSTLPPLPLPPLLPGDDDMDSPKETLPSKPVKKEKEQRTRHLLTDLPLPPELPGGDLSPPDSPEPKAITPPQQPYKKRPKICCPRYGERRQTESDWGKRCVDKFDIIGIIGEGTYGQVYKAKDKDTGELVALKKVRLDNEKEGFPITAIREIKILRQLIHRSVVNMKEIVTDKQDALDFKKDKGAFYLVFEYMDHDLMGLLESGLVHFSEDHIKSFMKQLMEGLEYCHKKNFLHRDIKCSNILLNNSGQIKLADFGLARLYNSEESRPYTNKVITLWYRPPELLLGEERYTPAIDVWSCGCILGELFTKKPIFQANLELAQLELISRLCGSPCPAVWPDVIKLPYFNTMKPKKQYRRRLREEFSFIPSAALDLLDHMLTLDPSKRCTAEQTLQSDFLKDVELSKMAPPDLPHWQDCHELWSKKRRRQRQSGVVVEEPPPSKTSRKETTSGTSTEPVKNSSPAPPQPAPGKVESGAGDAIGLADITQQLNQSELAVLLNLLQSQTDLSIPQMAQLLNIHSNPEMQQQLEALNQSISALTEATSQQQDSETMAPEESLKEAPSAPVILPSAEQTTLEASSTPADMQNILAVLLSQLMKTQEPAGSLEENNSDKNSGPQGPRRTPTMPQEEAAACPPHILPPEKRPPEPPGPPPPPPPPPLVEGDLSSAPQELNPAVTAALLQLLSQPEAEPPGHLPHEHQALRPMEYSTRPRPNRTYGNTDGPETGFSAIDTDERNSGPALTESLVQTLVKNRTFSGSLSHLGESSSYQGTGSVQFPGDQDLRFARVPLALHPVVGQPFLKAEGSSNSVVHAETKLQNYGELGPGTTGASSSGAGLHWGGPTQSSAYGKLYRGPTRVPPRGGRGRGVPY
Sequence of CDK12 (O75909 whole entry partner): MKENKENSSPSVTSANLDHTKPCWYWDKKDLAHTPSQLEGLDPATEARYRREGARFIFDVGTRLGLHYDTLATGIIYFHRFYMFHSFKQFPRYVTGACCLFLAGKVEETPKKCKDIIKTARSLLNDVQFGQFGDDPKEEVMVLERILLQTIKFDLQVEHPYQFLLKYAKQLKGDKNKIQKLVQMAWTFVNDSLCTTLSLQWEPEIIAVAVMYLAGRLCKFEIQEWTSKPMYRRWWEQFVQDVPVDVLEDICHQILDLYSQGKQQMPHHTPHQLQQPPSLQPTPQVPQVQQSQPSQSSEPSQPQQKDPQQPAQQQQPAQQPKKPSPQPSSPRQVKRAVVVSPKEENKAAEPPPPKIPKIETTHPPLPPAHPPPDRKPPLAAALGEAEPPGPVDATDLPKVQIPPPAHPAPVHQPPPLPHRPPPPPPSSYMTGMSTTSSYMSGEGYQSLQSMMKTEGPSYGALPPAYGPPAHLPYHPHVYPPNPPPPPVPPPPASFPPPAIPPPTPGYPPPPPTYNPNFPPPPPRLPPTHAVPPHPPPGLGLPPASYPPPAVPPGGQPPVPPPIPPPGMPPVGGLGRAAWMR

CDK9/P-TEFb phosphorylation of the GST-CTD substrate ([1]; listed as Recombinant CRIF1): does not inhibit | CDK9/P-TEFb phosphorylation of the GST-CTD substrate ([1]; listed as rCRIF): no effect
Substance: Growth Arrest and DNA Damage-Inducible Proteins-Interacting Protein 1 [CRIF1]
presence of CRIF1 in CDK12 complexes [2]: present | presence in / binding to CDK7 complexes [3]: not present; also recorded: does not bind
